One assay concerns the target CRBN-DDB1 (Homo sapiens, UniProt Q96SW2). Kind of assay: Compound binding to CRBN by HTRF assay. The note with it: CRBN-DDB1 2.5 nM, Cy5-Thalidomide 100 nM probe, 30 min incubation; read-out: HTRF Class (Cereblon binding, HTRF IC50). As for the experimental part:
Compound activity was monitored in a Homogenous Time-Resolved Fluorescence (HTRF) assay using 1-[5-({2-[2-(2-{[2-(2,6-dioxopiperidin-3-yl)-1,3-dioxo-2,3-dihydro-1H-isoindol-4-yl]oxy}acetamido)ethoxy]ethyl}carbamoyl)pentyl]-3,3-dimethyl-2-[(1E,3E)-5-[(2E)-1,3,3-trimethyl-5-sulfo-2,3-dihydro-1H-indol-2-ylidene]penta-1,3-dien-1-yl]-3H-indol-1-ium-5-sulfonate as a fluorescent probe. Biochemical assays were conducted in Greiner white 384 well HiBase plates (Cat. No 784075-25) in 10 μL total volume. A one pot detection solution of CRBN-DDB1 (2.5 nM), Anti-His Terbium Cryptate Gold (1×, PerkinElmer Cat. #: 61HI2TLB), and Cy5-Thalidomide (100 nM, Tenova Cat.: T52461) was prepared in 20 mM HEPES, 20 mM NaCl, 0.2 mM TCEP, 0.2 mM EDTA, and 0.005% Tween20 was dispensed to each assay plate. Compounds were stored in dry, ambient temperatures at 10 mM. A 10-point, 1:3 dilution series was prepared from 10 mM stock concentrations in Echo-compatible LDV plates. 10 nL of each compound dilution series was dispensed into assays wells using an Echo 650 (Labcyte inc. USA). 10 nL of 10 mM Lenalidomide was transferred into the active-control wells for the assay and 10 nL of DMSO was transferred into the neutral-control wells. The assay was then allowed to incubate for 30 min at ambient temperature after transferring compound. Plate measurements were taken on a Pherastar FSX (BMG Labtech, Germany) using the HTRF Red filter (Ex. 337 nm, em1: 620 nm, em2: 665 nm) (Flashes: 50, Integration time: 60-400 us, Z-height: 10 mm, Ratio-multiplier: 10,000). The HTRF signal was then subsequently normalized to the neutral and active controls. Analysis and IC50 values were derived using KNIME analytics (KNIME Zurich) transformation and fitting within Collaborative Drug Discovery (Collaborative Drug Discovery USA). Ki was derived from the geometric mean of the IC50 values using the Cheng-Prustoff transformation.
(§1) In Table 2, each compound is assigned a class (HTRF class) indicating the ability for Cereblon binding by means of their HTRF IC50 values according to Example 3: A, B or C. According to the code, A represents an IC50 value of <100 nM, B represents an IC50 value>100 nM and <1000 nM, C represents an IC50 value>1000 nM. IF Class assigns each compound a code indicating the ability for GSPT1 degradation: A, B or C. According to the code, A represents a DC50 value of <30 nM, B represents a DC50 value>30 nM and <300 nM and C represents a DC50 value of >300 nM.
(Time-resolved FRET reads energy transfer from a long-lived donor to a nearby acceptor.)

The next assay has as its target T1, GSPT1 (Homo sapiens, UniProt P15170+Q96SW2).
T1 construct: CAL-51 cells were purchased from DSMZ (cat. Number ACC302); endogenous in cells; host or cells: CAL-51 (DSMZ ACC302)
Description: Immunofluorescence assay for GSPT1 degradation in CAL-51 cells. Particulars: 6 h treatment, read-out: IF Class (GSPT1 degradation, DC50). Type of assay: cell-based. As for the experimental part:
The representative compounds were tested in an immunofluorescence assay for their activity to degrade GSPT1. CAL-51 cells were purchased from DSMZ (cat. Number ACC302), sub-cultured in 90% Dulbecco's MEM (4.5 g/L glucose, Gibco 11965)+10% heat inactivated FBS (BioConcept, 2-01F136I) and incubated at 37° C., 5% CO2. For the assay imaging microtiter plate Cell Carrier 96 Ultra (Perkin Elmer 6055302) were pre-coated with Fibronectin (Sigma F085, 30 μl at 0.2 μg/mL) in PBS (100 μL, Gibco 14190) for 45 min at room temperature, rinsed with PBS and CAL-51 cells (30K cells/well) were plated and let to adhere overnight. Cells were treated with compounds typically using a serial dilution ranging from 30 μM to 0.1 nM for 6 h. Compounds were stored at 10 mM DMSO stocks. Vehicle (DMSO), positive (CC-885, 10 μM) and rescue controls (positive control plus 0.2 μM bortezomib) were also included at this stage. Cells were subsequently rinsed with PBS and fixed in 10% Formalin solution (50 μl, Sigma HT5011)) for 20 min at room temperature. Following three consecutive PBS washes (100 μL), cells were permeabilized in 0.1% Triton X-100 in PBS (Sigma 93443, 50 μl) for 15 min at room temperature. Following three further PBS washes, 50 μl blocking buffer (1% BSA, Sigma A4503, in PBS) was added for 45 min for signal-to noise reduction. Primary antibody (human GSPT1, Sigma HPA052488) was diluted in blocking buffer (dil.1/300, 35 μL/well) and incubated with the cells overnight at 4° C. After three PBS washes, Alexa-fluor 488 coupled secondary antibodies (Invitrogen, A32731, dil.1/1000), Alexa-fluor 647-Phalloidin (Invitrogen, A22287, dil.1/200) and DAPI (Thermo, #62248, dil.1/1000) were diluted in blocking buffer and incubated with the samples for 2 h at room temperature. After three final PBS washes, samples were conserved in 100 μL PBS in the dark, until measurement. Image acquisition was performed on the Operetta High-Content Imager (Perkin-Elmer). Fluorescence intensity of […] (GSPT1), Alexa-Fluor 647 (Actin) and DAPI (Nucleus) were measured. For the determination of GSPT1 DC50 values, a custom algorithm implemented in the PerkinElmer image analysis software Harmony-Acapella® was developed. After user-defined setting of adjustment parameters, the analysis was run identically without human intervention for all image fields. DAPI staining of the nuclei was used to determine the location of cells using standard nuclei detection modules. Segmentation artifacts were removed by threshold-based filters for area, roundness and intensity. The outline of the cells was determined analogously from the sum of the normalized, smoothed DAPI and Actin channel, starting from each nucleus. The Alexa-Fluor 488 (GSPT1) signal intensity in each cell was finally measured, in order to obtain a Mean intensity per cell. GSPT1 degradation (DC50) was calculated after normalization to controls and data import in CDD vault Database, using non-linear regression.
as §1

Chain of CRBN-DDB1 (Q96SW2 whole entry): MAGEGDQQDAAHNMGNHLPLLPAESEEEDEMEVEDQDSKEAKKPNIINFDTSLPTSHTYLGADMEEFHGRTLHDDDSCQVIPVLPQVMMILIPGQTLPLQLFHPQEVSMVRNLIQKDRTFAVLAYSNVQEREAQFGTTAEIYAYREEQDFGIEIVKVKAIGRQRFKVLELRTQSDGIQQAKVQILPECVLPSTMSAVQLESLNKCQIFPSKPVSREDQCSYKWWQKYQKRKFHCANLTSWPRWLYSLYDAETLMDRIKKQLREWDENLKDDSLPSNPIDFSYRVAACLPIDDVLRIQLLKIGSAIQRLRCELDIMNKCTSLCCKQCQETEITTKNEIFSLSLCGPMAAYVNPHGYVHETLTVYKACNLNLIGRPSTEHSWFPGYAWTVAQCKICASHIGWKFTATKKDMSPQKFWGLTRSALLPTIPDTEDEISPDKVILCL
Chain of CRBN-DDB1 (Q16531 whole entry partner): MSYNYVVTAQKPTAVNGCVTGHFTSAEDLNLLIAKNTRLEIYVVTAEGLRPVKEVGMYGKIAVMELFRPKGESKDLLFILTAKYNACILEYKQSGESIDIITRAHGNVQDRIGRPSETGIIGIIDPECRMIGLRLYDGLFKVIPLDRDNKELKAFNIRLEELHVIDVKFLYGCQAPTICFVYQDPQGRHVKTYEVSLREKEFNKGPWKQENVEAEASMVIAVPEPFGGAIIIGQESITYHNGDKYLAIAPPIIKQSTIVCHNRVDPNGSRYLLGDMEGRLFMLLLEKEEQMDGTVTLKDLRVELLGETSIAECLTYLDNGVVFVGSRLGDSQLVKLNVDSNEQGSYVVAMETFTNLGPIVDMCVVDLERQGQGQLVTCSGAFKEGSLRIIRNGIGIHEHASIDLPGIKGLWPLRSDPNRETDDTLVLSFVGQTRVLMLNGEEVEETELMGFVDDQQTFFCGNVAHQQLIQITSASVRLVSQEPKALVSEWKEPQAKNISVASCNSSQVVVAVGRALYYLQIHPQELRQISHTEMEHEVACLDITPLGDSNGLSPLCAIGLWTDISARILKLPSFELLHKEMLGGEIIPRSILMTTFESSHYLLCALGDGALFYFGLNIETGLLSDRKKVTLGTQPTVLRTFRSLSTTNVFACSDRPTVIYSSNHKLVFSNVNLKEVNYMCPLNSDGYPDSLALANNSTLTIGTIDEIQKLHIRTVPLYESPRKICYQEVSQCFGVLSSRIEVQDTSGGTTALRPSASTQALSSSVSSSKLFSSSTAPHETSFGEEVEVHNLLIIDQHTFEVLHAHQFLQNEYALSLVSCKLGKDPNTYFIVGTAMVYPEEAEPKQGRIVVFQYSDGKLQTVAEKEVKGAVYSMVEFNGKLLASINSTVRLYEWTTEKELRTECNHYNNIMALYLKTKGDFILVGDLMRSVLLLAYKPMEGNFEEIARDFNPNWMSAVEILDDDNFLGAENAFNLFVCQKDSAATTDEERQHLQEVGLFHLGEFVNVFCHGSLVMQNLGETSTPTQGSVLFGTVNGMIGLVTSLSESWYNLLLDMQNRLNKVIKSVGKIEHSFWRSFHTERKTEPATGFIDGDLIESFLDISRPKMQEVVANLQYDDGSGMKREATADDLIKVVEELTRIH
T1 sequence (P15170 whole entry): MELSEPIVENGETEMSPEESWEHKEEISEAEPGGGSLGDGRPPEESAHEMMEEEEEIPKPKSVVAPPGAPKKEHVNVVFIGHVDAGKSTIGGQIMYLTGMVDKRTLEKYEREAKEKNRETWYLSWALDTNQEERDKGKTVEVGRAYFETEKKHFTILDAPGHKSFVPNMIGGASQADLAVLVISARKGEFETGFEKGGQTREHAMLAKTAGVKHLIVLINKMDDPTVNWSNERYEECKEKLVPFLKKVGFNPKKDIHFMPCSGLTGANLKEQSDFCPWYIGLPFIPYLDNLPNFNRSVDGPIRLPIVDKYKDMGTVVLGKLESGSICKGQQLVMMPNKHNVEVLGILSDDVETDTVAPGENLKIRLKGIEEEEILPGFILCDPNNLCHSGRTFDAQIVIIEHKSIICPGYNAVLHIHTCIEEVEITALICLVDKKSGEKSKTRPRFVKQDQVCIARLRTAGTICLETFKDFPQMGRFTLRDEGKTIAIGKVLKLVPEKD
T1 sequence (Q96SW2 whole entry): as the sequence (Q96SW2 whole entry) above
T1 sequence (Q16531 2-1140 partner limits assumed): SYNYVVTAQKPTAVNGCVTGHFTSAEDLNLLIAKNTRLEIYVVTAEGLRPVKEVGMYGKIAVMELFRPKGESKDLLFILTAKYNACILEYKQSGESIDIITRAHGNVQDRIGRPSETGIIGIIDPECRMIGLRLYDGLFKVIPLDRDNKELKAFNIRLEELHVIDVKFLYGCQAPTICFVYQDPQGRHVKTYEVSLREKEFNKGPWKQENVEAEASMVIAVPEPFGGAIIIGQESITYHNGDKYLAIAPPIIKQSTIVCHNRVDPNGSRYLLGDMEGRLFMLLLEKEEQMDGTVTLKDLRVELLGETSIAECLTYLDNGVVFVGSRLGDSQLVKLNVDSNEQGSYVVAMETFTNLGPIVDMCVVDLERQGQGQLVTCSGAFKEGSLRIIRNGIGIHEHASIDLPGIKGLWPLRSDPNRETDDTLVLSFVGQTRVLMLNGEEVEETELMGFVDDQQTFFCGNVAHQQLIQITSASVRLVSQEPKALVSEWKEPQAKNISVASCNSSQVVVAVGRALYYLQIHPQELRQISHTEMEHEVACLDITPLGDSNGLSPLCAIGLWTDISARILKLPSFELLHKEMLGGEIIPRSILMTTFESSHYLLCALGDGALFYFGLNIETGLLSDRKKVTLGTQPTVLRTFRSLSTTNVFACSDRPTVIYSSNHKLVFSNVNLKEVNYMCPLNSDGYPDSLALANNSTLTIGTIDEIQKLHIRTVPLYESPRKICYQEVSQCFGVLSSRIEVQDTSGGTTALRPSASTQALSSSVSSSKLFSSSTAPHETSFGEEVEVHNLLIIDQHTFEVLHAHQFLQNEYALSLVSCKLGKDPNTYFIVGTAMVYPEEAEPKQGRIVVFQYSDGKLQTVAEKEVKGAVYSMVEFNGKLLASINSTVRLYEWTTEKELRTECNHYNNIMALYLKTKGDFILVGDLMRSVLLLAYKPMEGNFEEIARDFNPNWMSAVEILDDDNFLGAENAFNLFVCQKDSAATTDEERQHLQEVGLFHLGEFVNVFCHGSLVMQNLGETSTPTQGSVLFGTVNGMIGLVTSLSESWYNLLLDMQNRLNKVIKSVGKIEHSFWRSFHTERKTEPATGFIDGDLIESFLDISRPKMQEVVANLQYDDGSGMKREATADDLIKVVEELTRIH

For `O=C1CCC(c2c(F)cc(N3CC(NC(=O)Cc4cccc(Cl)c4)C3)cc2F)C(=O)N1` (centres unmarked) [Compound 32, 2-(3-chlorophenyl)-N-(1-(4-(2,6-dioxo-3-piperidyl)-3,5-difluoro-phenyl)azetidin-3-yl)acetamide], the half-inhibitory concentration (IC50) at CRBN-DDB1 lay within 100 to 1000 nM. Further, the DC50 on GSPT1 fell in the range of 30 to 300 nM.
For the compound `O=C1CCC(c2c(F)cc(N3CC(NC(=O)Cc4ccc(Cl)c(F)c4)C3)cc2F)C(=O)N1` (centres unmarked) [Compound 14, 2-(4-chloro-3-fluorophenyl)-N-(1-(4-(2,6-dioxopiperidin-3-yl)-3,5-difluorophenyl)azetidin-3-yl)acetamide], the IC50 at CRBN-DDB1 was in the range of 100 to 1000 nM. Moreover, the 50% degradation concentration (DC50) on GSPT1 was greater than 300 nM.
With `O=C1CCC(c2c(F)cc(N3CC(NC(=O)Cc4ccc(F)cc4F)C3)cc2F)C(=O)N1` (centres unmarked) [Compound 11, 2-(2,4-difluorophenyl)-N-(1-(4-(2,6-dioxopiperidin-3-yl)-3,5-difluorophenyl)azetidin-3-yl)acetamide], the half-maximal inhibitory concentration (IC50) on CRBN-DDB1 was in the range of 100 to 1000 nM. The DC50 on GSPT1 is less than 30 nM.
For `O=C1CCC(c2c(F)cc(N3CC(NC(=O)Cc4cc(F)cc(OC(F)F)c4)C3)cc2F)C(=O)N1` (centres unmarked) [Compound 26, 2-(3-(difluoromethoxy)-5-fluorophenyl)-N-(1-(4-(2,6-dioxopiperidin-3-yl)-3,5-difluorophenyl)azetidin-3-yl)acetamide], in that order: 100 to 1000 nM and greater than 300 nM.
On the same counts, the results for `C[C@@H]1CCCN1c1ccc(CC(=O)NC2CN(c3cc(F)c(C4CCC(=O)NC4=O)c(F)c3)C2)cn1` (stereo partly drawn) [Compound 19, N-(1-(4-(2,6-dioxopiperidin-3-yl)-3,5-difluorophenyl)azetidin-3-yl)-2-(6-((R)-2-methylpyrrolidin-1-yl)pyridin-3-yl)acetamide] are less than 100 nM and greater than 300 nM.
For the compound `O=C1CCC(c2ccc(N3CC(NC(=O)Cc4ccc(Cl)cc4)C3)cc2Cl)C(=O)N1` (centres unmarked) [Compound 34, N-(1-(3-chloro-4-(2,6-dioxopiperidin-3-yl)phenyl)azetidin-3-yl)-2-(4-chlorophenyl)acetamide], the DC50 on GSPT1 was greater than 300 nM.
On to `O=C1CCC(c2c(F)cc(N3CC(CC(=O)Nc4ccc(F)c(OC(F)F)c4)C3)cc2F)C(=O)N1` (centres unmarked) [Compound 6, N-(3-(difluoromethoxy)-4-fluorophenyl)-2-(1-(4-(2,6-dioxopiperidin-3-yl)-3,5-difluorophenyl)azetidin-3-yl)acetamide], for which the IC50 on CRBN-DDB1 fell in the range of 100 to 1000 nM. Also, the half-maximal degradation concentration (DC50) at GSPT1 is 30 to 300 nM.
For `O=C1CCC(c2c(F)cc(N3CC(NC(=O)Cc4ccc(C5CCC5)cc4)C3)cc2F)C(=O)N1` (centres unmarked) [Compound 20, 2-(4-cyclobutylphenyl)-N-(1-(4-(2,6-dioxopiperidin-3-yl)-3,5-difluorophenyl)azetidin-3-yl)acetamide], the 50% inhibitory concentration (IC50) on CRBN-DDB1 is 100 to 1000 nM. Besides, the DC50 at GSPT1 was greater than 300 nM.
For the compound `Cc1ccc(NC(=O)CC2CN(c3cc(F)c(C4CCC(=O)NC4=O)c(F)c3)C2)cc1Cl` (centres unmarked) [Compound 40, N-(3-chloro-4-methylphenyl)-2-(1-(4-(2,6-dioxopiperidin-3-yl)-3,5-difluorophenyl)azetidin-3-yl)acetamide], the half-inhibitory concentration (IC50) at CRBN-DDB1 was greater than 1000 nM. Moreover, the DC50 at GSPT1 is less than 30 nM.
For `O=C1CCC(c2c(F)cc(N3CC(NC(=O)C45CC(c6ccccc6)(C4)C5)C3)cc2F)C(=O)N1` (centres unmarked) [Compound 21, N-(1-(4-(2,6-dioxopiperidin-3-yl)-3,5-difluorophenyl)azetidin-3-yl)-3-phenylbicyclo [1.1.1]pentane-1-carboxamide], in that order: 100 to 1000 nM and greater than 300 nM.
As to `O=C1CCC(c2c(F)cc(N3CC(NC(=O)c4cc(Cl)ccc4F)C3)cc2F)C(=O)N1` (centres unmarked) [Compound 46, 5-chloro-N-(1-(4-(2,6-dioxopiperidin-3-yl)-3,5-difluorophenyl)azetidin-3-yl)-2-fluorobenzamide], at CRBN-DDB1, the half-maximal inhibitory concentration (IC50) fell in the range of 100 to 1000 nM.
For `Cc1c(Cl)cc(NC(=O)CC2CN(c3cc(F)c(C4CCC(=O)NC4=O)c(F)c3)C2)cc1CN1CCOCC1` (centres unmarked) [Compound 38, N-(3-chloro-4-methyl-5-(morpholinomethyl)phenyl)-2-(1-(4-(2,6-dioxopiperidin-3-yl)-3,5-difluorophenyl)azetidin-3-yl)acetamide], the DC50 on GSPT1 was less than 30 nM.
For the compound `O=C1CCC(c2c(F)cc(N3CC(NC(=O)C(F)(F)c4ccc(Cl)cc4)C3)cc2F)C(=O)N1` (centres unmarked) [Compound 37, 2-(4-chlorophenyl)-N-(1-(4-(2,6-dioxopiperidin-3-yl)-3,5-difluorophenyl)azetidin-3-yl)-2,2-difluoroacetamide], at GSPT1, the DC50 is greater than 300 nM.
For `N#Cc1cc(Cl)cc(CC(=O)NC2CN(c3cc(F)c(C4CCC(=O)NC4=O)c(F)c3)C2)c1` (centres unmarked) [Compound 44, 2-(3-chloro-5-cyanophenyl)-N-(1-(4-(2,6-dioxopiperidin-3-yl)-3,5-difluorophenyl)azetidin-3-yl)acetamide], the half-maximal degradation concentration (DC50) at GSPT1 fell in the range of 30 to 300 nM.
Turning to `O=C1CCC(c2ccc(N3CC(NC(=O)C(F)(F)c4ccc(Cl)cc4)C3)cc2Cl)C(=O)N1` (centres unmarked) [Compound 35, N-(1-(3-chloro-4-(2,6-dioxopiperidin-3-yl)phenyl)azetidin-3-yl)-2-(4-chlorophenyl)-2,2-difluoroacetamide], at GSPT1, the 50% degradation concentration (DC50) is greater than 300 nM.
Consider `O=C1CCC(c2c(F)cc(N3CC(CC(=O)Nc4cc(F)cc(OC(F)F)c4)C3)cc2F)C(=O)N1` (centres unmarked) [Compound 45, N-(3-(difluoromethoxy)-5-fluorophenyl)-2-(1-(4-(2,6-dioxopiperidin-3-yl)-3,5-difluorophenyl)azetidin-3-yl)acetamide], for which, on GSPT1, the DC50 was greater than 300 nM.
With `O=C1CCC(c2c(F)cc(N3CC(CC(=O)Nc4cccc(OC(F)(F)F)c4)C3)cc2F)C(=O)N1` (centres unmarked) [Compound 39, 2-(1-(4-(2,6-dioxopiperidin-3-yl)-3,5-difluorophenyl)azetidin-3-yl)-N-(3-(trifluoromethoxy)phenyl)acetamide], the DC50 on GSPT1 is 30 to 300 nM.

A word on the IC50: it is the concentration that inhibits the measured activity by half. As a reminder, the DC50 is the concentration at which degradation of the target reaches its halfway point.
